The nature of series [1]: FRAP assay for the antioxidant capacity. Also on record: key to FRAP: slope of concentration-absorbance line divided by Trolox slope. To be noted: stock in THF, acetate buffer pH 3.0, 37 °C, 15 min; ratio of slopes to trolox (melatonin in EtOH). As to the method:
In the FRAP method the antioxidant reduces Fe^3+ to Fe^2+ in an acidic medium. These experiments were performed in an acetate buffer of pH 3.0, the stock solutions of the examined antioxidants were prepared in THF. The antioxidant capacities were compared to that of Trolox as a standard, just like in the ABTS assays.
A modified literature process was used. The FRAP reagent should also be prepared freshly each day. 2,4,6-Tris(2-pyridyl)-s-triazin (TPTZ) was dissolved in a 200 mM HCl solution and diluted with water to get a final 40 mM HCl and 10 mM TPTZ concentration. For the preparation of the FRAP reagent 30 mL of 20 mM FeCl3 solution and 30 mL of 10 mM TPTZ solution were mixed, and 300 mL of 300 mM acetate buffer with pH 3.0 was added (a pH lower than usual was used to avoid the precipitation of the TPTZ). The FRAP reagent was incubated at 37 °C for 15 min. 150 μL of antioxidant dissolved in THF was mixed with 2.85 mL FRAP reagent solution, and incubated at 37 °C for 15 min in dark. Measurements were carried out at each antioxidant concentration (0, 7.5; 10; 12.5; 15; 17.5 μM final concentration) in triplicate. In the 0 μM solution the antioxidant solution was substituted with acetate buffer (pH 3.0). The FRAP was determined at 600 nm: the absorbance values were plotted as a function of concentration of the sample compounds and that of Trolox for the standard reference data. The FRAP values were calculated as in the ABTS assays, i.e., the slope of the concentration-absorbance lines for the carotenoid derivatives was divided by that for the trolox.

A short description of series [2]: TEAC assay using ABTS radical. To be noted: 6 min, ratio of slopes to trolox (melatonin dissolved in EtOH); for TEAC from DMSO: stock in DMSO diluted with PBS pH 7.4, 37 °C; for TEAC from THF: stock in THF diluted with PBS pH 7.4, 37 °C. As to the method: This method uses a redox reaction between ABTS^•+ radical cation and the examined antioxidants, which act as the reducing agents. […] As the carotenoids and the conjugates are poorly soluble in water, they were dissolved first either in small amounts of freshly distilled tetrahydrofuran (THF) or in dimethylsulfoxide (DMSO), and these stock solutions were diluted with phosphate-buffered saline (PBS) to the final nominal concentration.
The TEAC values were determined in isotonic phosphate buffer of pH 7.4. The buffer solution was made by dissolving 9.55 g of DPBS powder in distilled water to form 1L of solution (composition: 0.138 M NaCl, 0.0027 M KCl, 0.0081 M Na2HPO4, 0.0015 M KH2PO4). The assay was performed according to a literature process with slight modifications. The ABTS^•+ radical cation was produced by reacting 7 mM 2,2′-azino-bis(3-ethylbenzothiazoline-6-sulfonic acid) and 2.45 mM potassium persulfate in water. The stock ABTS^•+ solution was prepared 12–16 h before the experiments, and stored at room temperature in dark. The absorbance of the ABTS^•+ solution was set to 0.70 ± 0.05 at 734 nm by a ca. 100-fold dilution with phosphate-buffered saline (PBS). […] The stock solutions were diluted with PBS such that equal amounts of the diluted solutions were added to the ABTS^•+ reagent to obtain final antioxidants concentrations of 0.3125, 0.625, 1.25, 2.50, 3.75, 5 μM, respectively. In the blank (0 μM), the solutions of the antioxidants were substituted with THF or DMSO.
The antioxidants were incubated with ABTS^•+ solution at 37 °C for 6 min. During the reaction of ABTS^•+ with the antioxidants the absorbance of the solution decreases. The percentage inhibition of absorbance at 734 nm was calculated as (A0 − Aantioxidant)/A0, where A0 is the absorbance of the ABTS^•+ solution and Aantioxidant is the absorbance measured after the addition of the antioxidant. The determinations were carried out at each concentration in triplicate. The calculated values were plotted against the final concentration of the antioxidants. The slopes of the curves were compared with that for trolox, the TEAC value is the ratio of the slopes for the antioxidant and for trolox.

Series [3] is described as follows: Study of aggregation by UV-Vis spectrophotometry. Format: physicochemical. An excerpt: It has been known for a long while that carotenoids or their derivatives can be prone to supramolecular organization in water or water-organic solvent mixtures. This behaviour is especially interesting because this higher organization can modulate or alter biological properties of carotenoids, as well [40]. A tendency to form supramolecular structures can be tested by recording the UV spectra in an organic solvent and increasing the ratio of water in the sample. […] We have some recent experience of such behaviour of carotenoid-flavonoid conjugates.
All of our adducts were tested with the method above using tetrahydrofurane (THF) or dimethylsulfoxide (DMSO) with increasing ratio of phosphate-buffered saline (PBS), which was the medium of the antioxidant measurements. […]
1. Study of Aggregation by UV-Vis Spectrophotometry
Starting from THF solutions: each conjugate was dissolved in freshly distilled THF and the solutions were diluted
either with THF or THF-PBS mixtures to obain final solutions of identical carotenoid concentration. […]
Figure S1. UV-spectra of 8’-apo-β-carotenol succinate ( 6) ( a) in THF and in THF-PBS mixtures ( 1:1 , 1:3); (b) in DMSO
Figure S2. UV-spectra of zeaxanthin bissuccinate ( 7) ( a) in THF and in THF-PBS mixtures ( 1:1 , 1:3); (b) in DMSO and
Figure S3. UV-spectra of zeaxanthin monosuccinate ( 11) ( a) in THF and in THF-PBS mixtures ( 1:1 , 1:3); (b) in DMSO […]

The nature of series [4]: Hydrodynamic diameter and colloidal stability of aggregates by dynamic light scattering. To be noted: for mean size (hydrodynamic diameter) / zeta potential: 37 °C; for PDI: sd^2/mean size^2. Format: physicochemical. As to the method: In contrary, all spectra gave a hypsochromic shift and loss of fine-structure when the DMSO solutions were diluted with PBS, which refers to the formation of H-type (card-pack) aggregates (Figures S1–S12). Since DMSO-containing aqueous systems are more suitable for biological studies, we examined these solution by dynamic light scattering (DLS) spectroscopy to gain more information about the particles. The concentrations of the examined solutions were the same as used in the ABTS/TEAC measurements (0.3125–5.00 μM, see next section).
Size determination of aggregates and the colloidal stability of the sample dispersions were determined by dynamic light scattering measurements, where the hydrodynamic diameter of particles, and zeta potential values were collected. The number-weighted size distribution indicated one main peak in each case, the polydispersity index (PDI) was calculated as sd^2/mean size^2. For the particle size analysis Malvern Zetasizer Nano S instrument and for the zeta potential determination Malvern Zetasizer Nano Z instrument were used (Malvern Panalytical Ltd., Great Malvern, Worcestershire, UK). The measurements were carried out in autocorrelation mode, and the following parameters were kept constant: scattering angle 173°, attenuator 11 and its factor 0.0146, measurement position 4.65 mm. The concentrations of sample dispersions were between 0.3125 and 5 µM. The dispersion medium was PBS. Each samples was examined after 6 min incubation period at 37 °C.

[5] abbreviates: 0.3125 μM in PBS from DMSO stock.
Where [6] appears, read: 0.625 μM in PBS from DMSO stock.

Consider eleven compounds from PMC9369794 (Molecules, 2022).

As usually defined, the melting point is the temperature, or range, at which the solid turns liquid.

Counter-ions that a name gives are not always drawn.

Take `CC1=C(/C=C/C(C)=C/C=C/C(C)=C/C=C/C=C(C)/C=C/C=C(\C)COC(=O)CCC(=O)O)C(C)(C)CCC1` (as salt: succinate) [Compound 6, 8′-Apo-β-carotenol succinate]: the melting point fell in the range of 123 to 124 °C.

Compound `CC1=C(/C=C/C(C)=C/C=C/C(C)=C/C=C/C=C(C)/C=C/C=C(C)/C=C/C2=C(C)C[C@@H](OC(=O)CCC(=O)O)CC2(C)C)C(C)(C)C[C@H](OC(=O)CCC(=O)O)C1` (as salt: succinate) [Compound 7, Zeaxanthin bissuccinate] came in with a melting point of 152 to 153 °C.

The compound `CC1=C(/C=C/C(C)=C/C=C/C(C)=C/C=C/C=C(C)/C=C/C=C(C)/C=C/C2=C(C)C[C@@H](OC(=O)CCC(=O)O)CC2(C)C)C(C)(C)CCC1` (as salt: succinate) [Compound 8, β-Cryptoxanthin succinate] yielded a melting point of 142 to 143 °C.

For the compound `CC1=C(/C=C/C(C)=C/C=C/C(C)=C/C=C/C=C(C)/C=C/C=C(C)/C=C/C(=O)[C@]2(C)C[C@@H](OC(=O)CCC(=O)O)CC2(C)C)C(C)(C)C[C@H](OC(=O)CCC(=O)O)C1` (as salt: succinate) [Compound 9, Capsanthin bissuccinate], the melting point was 143 to 144 °C.

In turn, `CC1=C[C@H](OC(=O)CCC(=O)O)CC(C)(C)[C@H]1/C=C/C(C)=C/C=C/C(C)=C/C=C/C=C(C)/C=C/C=C(C)/C=C/C1=C(C)C[C@@H](OC(=O)CCC(=O)O)CC1(C)C` (as salt: succinate) [Compound 10, Lutein bissuccinate] returned a melting point of 148 to 149 °C.

Take `CC1=C(/C=C/C(C)=C/C=C/C(C)=C/C=C/C=C(C)/C=C/C=C(\C)C=O)C(C)(C)CCC1` [8'-Apo-β-carotenal, 8′-apo-β-carotenal, reference compound]: the FRAP in series [1] came out at 0.443. For the same compound, in series [2], the “TEAC from DMSO” value came out at 1.19 and the “TEAC from THF” value amounted to 0.953.

For the compound `CC1=C(/C=C/C(C)=C/C=C/C(C)=C/C=C/C=C(C)/C=C/C=C(C)/C=C/C2=C(C)C[C@@H](O)CC2(C)C)C(C)(C)C[C@H](O)C1` [Compound 2, zeaxanthin, reference compound], in series [1], the FRAP worked out at 0.351. In series [2], the “TEAC from DMSO” value was 2.70 and the “TEAC from THF” value amounted to 2.016.

For the compound `CC1=C(/C=C/C(C)=C/C=C/C(C)=C/C=C/C=C(C)/C=C/C=C(C)/C=C/C2=C(C)C[C@@H](O)CC2(C)C)C(C)(C)CCC1` [Compound 3, cryptoxanthin, reference compound], in series [1], the FRAP came to 0.441. In series [2], the “TEAC from DMSO” value worked out at 1.61 and the “TEAC from THF” value is recorded as 2.062.

Regarding `CC1=C(/C=C/C(C)=C/C=C/C(C)=C/C=C/C=C(C)/C=C/C=C(C)/C=C/C(=O)[C@]2(C)C[C@@H](O)CC2(C)C)C(C)(C)C[C@H](O)C1` [Compound 4, capsanthin, reference compound], the FRAP in series [1] stood at 0.197. In series [2], the “TEAC from DMSO” value is 0.62 and the “TEAC from THF” value is 1.036.

Consider `CC1=C[C@H](O)CC(C)(C)[C@H]1/C=C/C(C)=C/C=C/C(C)=C/C=C/C=C(C)/C=C/C=C(C)/C=C/C1=C(C)C[C@@H](O)CC1(C)C` [Compound 5, lutein, reference compound], for which, in series [1], the FRAP was determined as 0.161. In addition, in series [2], the “TEAC from DMSO” value is recorded as 1.02 and the “TEAC from THF” value turned out to be 1.571.

Turning to `COc1ccc2[nH]cc(CCNC(=O)CNC(=O)CCC(=O)O[C@@H]3CC(C)=C(/C=C/C(C)=C/C=C/C(C)=C/C=C/C=C(C)/C=C/C=C(C)/C=C/C4=C(C)C[C@@H](O)CC4(C)C)C(C)(C)C3)c2c1` [Compound 13, Zeaxanthin-monomelatonin conjugate], the melting point lay in the range of 156 to 157 °C. For the same compound, in series [1], the FRAP worked out at 0.152. Moreover, the “type of aggregates formed” value in series [3] (from THF:aqueous solutions) is on record as “J-type (head-to-tail) aggregates”. In addition, in series [3] (starting from THF solutions), the “change of UV spectrum with increasing ratio of PBS” value was “bathochromic shift”. In series [4] (setting [5]), the “mean size (hydrodynamic diameter)” value is 388.20 nm and the zeta potential came to 16.0 mV. In addition, the PDI in series [4] (0.3125 μM in PBS) was 0.0336. Also, in series [4] (setting [6]), the “mean size (hydrodynamic diameter)” value was found to be 551.20 nm and the zeta potential came out at 15.4 mV. This compound also came in with a PDI in series [4] (0.625 μM in PBS) of 0.0410. Moreover, in series [4] (1.25 μM in PBS from DMSO stock), the “mean size (hydrodynamic diameter)” value worked out at 364.50 nm and the zeta potential is recorded as 2.2 mV. Besides, the PDI in series [4] (1.25 μM in PBS) is reported as 0.0270. Besides, in series [4] (2.5 μM in PBS from DMSO stock), the “mean size (hydrodynamic diameter)” value came to 638.90 nm and the zeta potential is listed as 2.2 mV. The PDI in series [4] (2.5 μM in PBS) is recorded as 0.0217. Further, in series [4] (3.75 μM in PBS from DMSO stock), the “mean size (hydrodynamic diameter)” value is reported as 79.01 nm and the zeta potential is 0.7 mV. Further, the PDI in series [4] (3.75 μM in PBS) came out at 0.0112. Also, in series [4] (5 μM in PBS from DMSO stock), the “mean size (hydrodynamic diameter)” value came to 565.30 nm and the zeta potential was found to be 1.1 mV. In series [4] (5 μM in PBS), this compound showed a PDI of 0.0311. In addition, the “hydrodynamic diameter of the aggregates” value in series [4] (over the concentrations 0.3125–5.00 μM) is reported as 400–600 nm. In series [2], the “TEAC from DMSO” value is 1.34 and the “TEAC from THF” value is reported as 1.434.
